The results in this text go back to patent US11020399B2, “Intermediates useful in the synthesis of compounds as modulators of protein kinases” (Rhizen Pharmaceuticals SA, priority 2011, dated 2021).

The target in one data set is PI3kα (Homo sapiens, UniProt P42336). The data set is described as follows: Fluorescent (HTRF) determination of PI3 kinase enzyme activity, PI3Kα. The data set is classed as biochemical. In short, it runs like this: (§1)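 Compounds tested at 1 μM on α and β isoforms and at 0.3 or 0.1 μM on γ and δ, with percent inhibition from blank and enzyme controls, plus IC50 fits. Room-temperature reaction: 10 min enzyme–compound preincubation in MgCl2/DTT buffer with 1.38 μM PIP2, then 30 min after 400 μM ATP addition; PIP3 read by HTRF (665/620 nm).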
PI3kα, sequence (P42336 whole entry, canonical isoform): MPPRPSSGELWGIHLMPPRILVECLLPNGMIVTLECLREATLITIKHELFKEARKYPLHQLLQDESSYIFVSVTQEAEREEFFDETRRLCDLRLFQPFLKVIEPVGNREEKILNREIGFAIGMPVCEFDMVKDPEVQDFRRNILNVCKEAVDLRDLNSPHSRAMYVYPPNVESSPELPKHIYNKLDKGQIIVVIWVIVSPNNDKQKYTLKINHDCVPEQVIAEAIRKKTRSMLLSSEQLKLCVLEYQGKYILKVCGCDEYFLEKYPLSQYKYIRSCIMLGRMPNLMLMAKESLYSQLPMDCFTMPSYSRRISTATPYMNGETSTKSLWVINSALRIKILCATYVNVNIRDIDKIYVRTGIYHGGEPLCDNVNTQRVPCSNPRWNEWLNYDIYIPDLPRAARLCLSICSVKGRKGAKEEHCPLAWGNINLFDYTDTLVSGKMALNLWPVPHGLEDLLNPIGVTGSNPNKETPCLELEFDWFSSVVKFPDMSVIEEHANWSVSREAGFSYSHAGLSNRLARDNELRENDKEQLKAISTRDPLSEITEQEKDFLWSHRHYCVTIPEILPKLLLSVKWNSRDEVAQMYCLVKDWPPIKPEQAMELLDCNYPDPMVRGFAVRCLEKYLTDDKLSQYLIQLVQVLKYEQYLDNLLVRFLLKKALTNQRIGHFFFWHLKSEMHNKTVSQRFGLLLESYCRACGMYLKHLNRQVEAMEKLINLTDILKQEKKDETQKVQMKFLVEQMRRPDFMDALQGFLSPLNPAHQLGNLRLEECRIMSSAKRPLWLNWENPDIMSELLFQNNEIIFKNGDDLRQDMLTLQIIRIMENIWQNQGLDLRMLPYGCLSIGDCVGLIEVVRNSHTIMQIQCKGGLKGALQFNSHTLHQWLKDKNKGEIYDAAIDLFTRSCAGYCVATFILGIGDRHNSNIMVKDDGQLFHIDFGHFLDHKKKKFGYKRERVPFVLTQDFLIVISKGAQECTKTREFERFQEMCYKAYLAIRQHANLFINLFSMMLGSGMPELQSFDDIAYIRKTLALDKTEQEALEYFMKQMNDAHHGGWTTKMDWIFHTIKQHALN
PI3kα, sequence (P27986 whole entry partner, canonical isoform): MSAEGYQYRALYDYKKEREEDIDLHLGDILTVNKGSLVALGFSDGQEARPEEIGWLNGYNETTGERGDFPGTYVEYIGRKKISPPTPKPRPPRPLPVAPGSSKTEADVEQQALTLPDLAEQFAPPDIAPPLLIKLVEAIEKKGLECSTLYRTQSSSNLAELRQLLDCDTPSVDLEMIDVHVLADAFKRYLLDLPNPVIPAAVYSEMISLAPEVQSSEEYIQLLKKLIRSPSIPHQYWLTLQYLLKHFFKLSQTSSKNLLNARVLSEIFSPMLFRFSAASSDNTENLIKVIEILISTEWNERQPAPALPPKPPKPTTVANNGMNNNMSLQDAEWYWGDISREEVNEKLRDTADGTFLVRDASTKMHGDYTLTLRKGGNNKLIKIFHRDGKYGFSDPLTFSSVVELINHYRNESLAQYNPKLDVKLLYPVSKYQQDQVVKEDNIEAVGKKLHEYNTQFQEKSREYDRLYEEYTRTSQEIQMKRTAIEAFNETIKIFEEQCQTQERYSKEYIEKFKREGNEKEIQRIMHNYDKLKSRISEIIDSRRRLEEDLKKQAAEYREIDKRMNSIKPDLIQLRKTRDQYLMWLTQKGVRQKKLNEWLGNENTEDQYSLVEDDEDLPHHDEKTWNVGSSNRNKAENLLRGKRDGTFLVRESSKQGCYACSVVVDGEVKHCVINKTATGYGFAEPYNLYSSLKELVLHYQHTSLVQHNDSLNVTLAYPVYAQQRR

The next data set addresses PI3kβ (Homo sapiens, UniProt P42338). Briefly: Fluorescent (HTRF) determination of PI3 kinase enzyme activity, PI3Kβ. In kind it is biochemical. In short, it runs like this:
as §1

A further data set has as its target PI3kγ (Homo sapiens, UniProt P48736). The data set is described as follows: Fluorescent (HTRF) determination of PI3 kinase enzyme activity, PI3Kγ. The data set is classed as biochemical. As to conditions: for inhibition at 0.1 µM: 100 nM (Examples 60-137); for inhibition at 0.3 µM: 300 nM (Examples 1-59). In short, it runs like this:
as §1
For orientation: Time-resolved FRET reads energy transfer from a long-lived donor to a nearby acceptor.

For another data set, the target named is PI3kδ (Homo sapiens, UniProt O00329). Briefly: Fluorescent (HTRF) determination of PI3 kinase enzyme activity, PI3Kδ. The data set is classed as biochemical. As to conditions: for inhibition at 0.1 µM: 100 nM (Examples 60-137); for inhibition at 0.3 µM: 300 nM (Examples 1-59). In short, it runs like this: as §1
PI3kδ, sequence (O00329 whole entry): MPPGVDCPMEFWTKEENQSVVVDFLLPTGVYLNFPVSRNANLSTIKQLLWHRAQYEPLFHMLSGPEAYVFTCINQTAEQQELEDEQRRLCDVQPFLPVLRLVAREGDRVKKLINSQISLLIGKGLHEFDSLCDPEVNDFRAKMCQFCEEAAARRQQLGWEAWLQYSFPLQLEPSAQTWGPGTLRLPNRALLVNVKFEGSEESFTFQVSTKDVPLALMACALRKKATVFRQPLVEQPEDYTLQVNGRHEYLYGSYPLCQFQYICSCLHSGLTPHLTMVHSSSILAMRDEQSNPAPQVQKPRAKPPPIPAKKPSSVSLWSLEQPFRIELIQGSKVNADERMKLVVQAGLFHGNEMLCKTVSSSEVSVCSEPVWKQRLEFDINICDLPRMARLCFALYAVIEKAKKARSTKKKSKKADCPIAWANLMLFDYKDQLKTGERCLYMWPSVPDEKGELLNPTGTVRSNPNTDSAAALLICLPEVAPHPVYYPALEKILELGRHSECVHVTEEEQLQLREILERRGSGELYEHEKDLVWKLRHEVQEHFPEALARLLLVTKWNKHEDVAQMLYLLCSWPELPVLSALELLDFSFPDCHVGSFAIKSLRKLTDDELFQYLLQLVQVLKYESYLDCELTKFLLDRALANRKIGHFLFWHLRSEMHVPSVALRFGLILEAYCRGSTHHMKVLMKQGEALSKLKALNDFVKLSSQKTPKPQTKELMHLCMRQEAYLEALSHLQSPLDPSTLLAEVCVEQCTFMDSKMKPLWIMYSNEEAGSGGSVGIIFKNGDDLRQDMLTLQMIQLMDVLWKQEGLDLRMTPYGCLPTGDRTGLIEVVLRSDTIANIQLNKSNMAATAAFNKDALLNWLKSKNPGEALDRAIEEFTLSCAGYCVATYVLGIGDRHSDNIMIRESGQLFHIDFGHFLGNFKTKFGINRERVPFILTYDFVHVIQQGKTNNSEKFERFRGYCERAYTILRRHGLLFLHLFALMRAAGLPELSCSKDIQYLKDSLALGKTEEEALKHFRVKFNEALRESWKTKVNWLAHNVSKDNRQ
PI3kδ, sequence (P27986 whole entry partner): as the sequence (P27986 whole entry partner, canonical isoform) above

PI3kβ, sequence (P42338 whole entry): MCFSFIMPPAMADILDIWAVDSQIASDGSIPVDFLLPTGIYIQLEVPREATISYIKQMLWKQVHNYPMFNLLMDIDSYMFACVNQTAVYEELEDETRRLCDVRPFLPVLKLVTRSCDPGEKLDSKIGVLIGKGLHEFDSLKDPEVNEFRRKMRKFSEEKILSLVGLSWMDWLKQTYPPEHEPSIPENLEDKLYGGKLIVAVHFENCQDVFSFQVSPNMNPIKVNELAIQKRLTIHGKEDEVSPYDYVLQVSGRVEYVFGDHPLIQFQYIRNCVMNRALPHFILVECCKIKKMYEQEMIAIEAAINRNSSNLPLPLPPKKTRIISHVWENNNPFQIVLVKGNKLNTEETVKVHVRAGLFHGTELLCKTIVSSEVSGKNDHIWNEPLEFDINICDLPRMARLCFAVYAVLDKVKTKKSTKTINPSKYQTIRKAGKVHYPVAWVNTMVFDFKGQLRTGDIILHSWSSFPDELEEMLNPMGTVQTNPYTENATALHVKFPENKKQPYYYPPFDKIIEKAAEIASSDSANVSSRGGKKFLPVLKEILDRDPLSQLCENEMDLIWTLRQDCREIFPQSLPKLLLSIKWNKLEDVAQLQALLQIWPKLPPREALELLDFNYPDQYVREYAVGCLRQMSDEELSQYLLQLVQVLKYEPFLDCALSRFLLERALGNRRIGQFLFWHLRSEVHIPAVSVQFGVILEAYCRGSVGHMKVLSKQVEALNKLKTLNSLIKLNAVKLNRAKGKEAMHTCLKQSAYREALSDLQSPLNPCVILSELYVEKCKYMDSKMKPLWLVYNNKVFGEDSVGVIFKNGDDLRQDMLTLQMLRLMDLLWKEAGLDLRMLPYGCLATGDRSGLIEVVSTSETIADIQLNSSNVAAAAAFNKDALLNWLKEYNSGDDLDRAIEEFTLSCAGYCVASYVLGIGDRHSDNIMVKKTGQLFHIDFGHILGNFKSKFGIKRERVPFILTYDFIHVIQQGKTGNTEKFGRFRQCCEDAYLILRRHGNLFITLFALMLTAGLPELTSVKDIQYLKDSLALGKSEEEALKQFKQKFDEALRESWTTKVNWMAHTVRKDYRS
PI3kβ, sequence (P27986 whole entry partner): as the sequence (P27986 whole entry partner, canonical isoform) above
PI3kγ, sequence (P48736 whole entry): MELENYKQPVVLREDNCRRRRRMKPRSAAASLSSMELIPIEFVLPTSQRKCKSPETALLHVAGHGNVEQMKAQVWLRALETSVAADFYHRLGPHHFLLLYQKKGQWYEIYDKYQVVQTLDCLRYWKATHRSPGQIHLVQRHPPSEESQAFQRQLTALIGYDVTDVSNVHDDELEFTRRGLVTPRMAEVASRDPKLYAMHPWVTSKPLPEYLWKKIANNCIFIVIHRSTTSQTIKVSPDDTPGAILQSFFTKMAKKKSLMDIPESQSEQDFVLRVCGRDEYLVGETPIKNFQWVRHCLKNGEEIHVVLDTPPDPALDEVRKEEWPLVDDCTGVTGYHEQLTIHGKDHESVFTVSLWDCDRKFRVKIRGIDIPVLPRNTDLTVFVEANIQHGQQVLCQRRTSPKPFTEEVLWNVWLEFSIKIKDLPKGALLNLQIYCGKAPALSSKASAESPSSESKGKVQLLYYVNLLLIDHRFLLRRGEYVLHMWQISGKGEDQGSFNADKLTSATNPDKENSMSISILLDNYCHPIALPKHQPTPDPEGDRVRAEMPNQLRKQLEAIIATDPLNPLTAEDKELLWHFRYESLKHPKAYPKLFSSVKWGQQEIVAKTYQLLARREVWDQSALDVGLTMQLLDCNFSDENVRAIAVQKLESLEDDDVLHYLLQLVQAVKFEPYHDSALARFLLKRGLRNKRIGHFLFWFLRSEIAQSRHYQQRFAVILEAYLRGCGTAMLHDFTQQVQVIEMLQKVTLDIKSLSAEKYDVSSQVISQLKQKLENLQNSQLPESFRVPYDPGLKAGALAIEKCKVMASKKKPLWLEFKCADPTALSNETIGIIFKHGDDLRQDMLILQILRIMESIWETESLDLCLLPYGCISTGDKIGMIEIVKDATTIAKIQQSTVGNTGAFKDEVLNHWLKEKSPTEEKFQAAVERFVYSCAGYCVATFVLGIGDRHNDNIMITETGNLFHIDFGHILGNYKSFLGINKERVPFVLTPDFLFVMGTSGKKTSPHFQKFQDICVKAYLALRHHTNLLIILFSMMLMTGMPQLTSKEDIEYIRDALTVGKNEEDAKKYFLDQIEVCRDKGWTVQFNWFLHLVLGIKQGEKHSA

One may read the inhibition as the change of the read-out against control, counted positive when it falls. A higher inhibition goes with a response far below the control. In general, melting point refers to the temperature of the solid-liquid transition. `CC(c1oc2cccc(F)c2c(=O)c1-c1cccc(F)c1)n1nc(-c2ccc(S(N)(=O)=O)cc2)c2c(N)ncnc21` (stereo not shown) [Example 60, 4-(4-amino-1-(1-(5-fluoro-3-(3-fluorophenyl)-4-oxo-4H-chromen-2-yl)ethyl)-1H-pyrazolo[3,4-d]pyrimidin-3-yl)benzenesulfonamide] returned a melting point of 232 to 235 °C. Besides, the inhibition at 1 µM against PI3kα (1 uM) was in the range of 0 to 25%. Further, the inhibition at 1 µM against PI3kβ (1 uM) was in the range of 25 to 50%. On PI3kγ, this molecule registered an inhibition at 0.1 µM of 25 to 50%. In addition, the inhibition at 0.1 µM on PI3kδ is 25 to 50%.

In the case of `Cc1n[nH]c2cc(-c3nn(C(C)c4oc5cccc(F)c5c(=O)c4-c4cccc(F)c4)c4ncnc(N5CCOCC5)c34)ccc12` (stereo not shown) [Example 112, 5-fluoro-3-(3-fluorophenyl)-2-(1-(3-(3-methyl-1H-indazol-6-yl)-4-morpholino-1H-pyrazolo[3,4-d]pyrimidin-1-yl)ethyl)-4H-chromen-4-one], the melting point lay in the range of 183 to 186 °C. The molecule further gave an inhibition at 1 µM on PI3kα (1 uM) of 50 to 75%. Moreover, at PI3kβ (1 uM), the inhibition at 1 µM lay within 0 to 25%. At PI3kγ, this molecule showed an inhibition at 0.1 µM of 50 to 75%. Further, on PI3kδ, the inhibition at 0.1 µM lay within 50 to 75%.

`Cc1c2ccc(-c3nn(C(C)c4oc5cccc(F)c5c(=O)c4-c4cccc(F)c4)c4ncnc(N)c34)cc2nn1C` (stereo not shown) [Example 80, 2-(1-(4-amino-3-(2,3-dimethyl-2H-indazol-6-yl)-1H-pyrazolo[3,4-d]pyrimidin-1-yl)ethyl)-5-fluoro-3-(3-fluorophenyl)-4H-chromen-4-one] had a melting point of 232 to 235 °C. In addition, the inhibition at 1 µM at PI3kα (1 uM) was in the range of 50 to 75%. The molecule further showed an inhibition at 1 µM on PI3kβ (1 uM) of 25 to 50%. Moreover, the inhibition at 0.1 µM against PI3kγ lay in the range of 25 to 50%. The molecule further came in with an inhibition at 0.1 µM on PI3kδ of 50 to 75%.

Molecule `Cc1nn(C)c2cc(-c3nn(C(C)c4oc5cccc(F)c5c(=O)c4-c4cccc(F)c4)c4ncnc(N)c34)ccc12` (stereo not shown) [Example 79, 2-(1-(4-amino-3-(1,3-dimethyl-1H-indazol-6-yl)-1H-pyrazolo[3,4-d]pyrimidin-1-yl)ethyl)-5-fluoro-3-(3-fluorophenyl)-4H-chromen-4-one] came in with a melting point of 220 to 224 °C. The same molecule came in with an inhibition at 1 µM on PI3kα (1 uM) of 25 to 50%. On PI3kβ (1 uM), this molecule came in with an inhibition at 1 µM of 25 to 50%. The inhibition at 0.1 µM at PI3kγ was in the range of 25 to 50%. This molecule displayed an inhibition at 0.1 µM against PI3kδ of 0 to 25%.

In turn, `CC(c1oc2cccc(F)c2c(=O)c1-c1cccc(F)c1)n1nc(-c2ccc(N3CCOCC3)c(F)c2)c2c(N)ncnc21` (racemic) [Example 70, (R)/(S)-2-(1-(4-amino-3-(3-fluoro-4-morpholinophenyl)-1H-pyrazolo[3,4-d]pyrimidin-1-yl)ethyl)-5-fluoro-3-(3-fluorophenyl)-4H-chromen-4-one] returned a melting point of 243 to 246 °C. Further, the “% inhibition (PI3kα) 1 uM” value at PI3kα (1 uM) is given as “D (D=0 to 25%)”. The “% inhibition (PI3kβ) 1 uM” value at PI3kβ (1 uM) is given as “C (C=>25 to 50%)”. On PI3kγ, the inhibition at 0.1 µM was in the range of 25 to 50%. For the same molecule, the inhibition at 0.1 µM against PI3kδ was in the range of 25 to 50%.

Regarding `CNc1nnc(-c2ccc(-c3nn(C(C)c4oc5cccc(F)c5c(=O)c4-c4cccc(F)c4)c4ncnc(N)c34)cc2)s1` (stereo not shown) [Example 54, 2-(1-(4-amino-3-(4-(5-(methylamino)-1,3,4-thiadiazol-2-yl)phenyl)-1H-pyrazolo[3,4-d]pyrimidin-1-yl)ethyl)-5-fluoro-3-(3-fluorophenyl)-4H-chromen-4-one], the melting point lay within 199 to 201 °C. For the same molecule, the inhibition at 1 µM against PI3kα (1 uM) fell in the range of 25 to 50%. At PI3kβ (1 uM), this molecule showed an inhibition at 1 µM of 25 to 50%. The same molecule gave an inhibition at 0.3 µM against PI3kγ of 50 to 75%. Further, on PI3kδ, the inhibition at 0.3 µM lay in the range of 50 to 75%.

Turning to `CC(c1oc2cccc(F)c2c(=O)c1-c1cccc(F)c1)n1nc(-c2ccc3c(c2)CNC3=O)c2c(N)ncnc21` (stereo not shown) [Example 123, 5-(4-amino-1-(1-(5-fluoro-3-(3-fluorophenyl)-4-oxo-4H-chromen-2-yl)ethyl)-1H-pyrazolo[3,4-d]pyrimidin-3-yl)isoindolin-1-one], the melting point is 293 to 296 °C. This molecule displayed an inhibition at 1 µM on PI3kα (1 uM) of 0 to 25%. On PI3kβ (1 uM), this molecule had an inhibition at 1 µM of 25 to 50%. The same molecule came in with an inhibition at 0.1 µM against PI3kγ of 0 to 25%. The molecule further came in with an inhibition at 0.1 µM against PI3kδ of 50 to 75%.

For orientation: IC50 means the concentration that inhibits the measured activity by half. Read a low IC50 as higher potency. For the molecule `CC(c1oc2cccc(F)c2c(=O)c1-c1cccc(F)c1)n1nc(-c2ccc(-c3nnc(N)s3)cc2)c2c(N)ncnc21` (stereo not shown) [Example 77, 2-(1-(4-amino-3-(4-(5-amino-1,3,4-thiadiazol-2-yl)phenyl)-1H-pyrazolo[3,4-d]pyrimidin-1-yl)ethyl)-5-fluoro-3-(3-fluorophenyl)-4H-chromen-4-one], the melting point was 202 to 205 °C. For the same molecule, the inhibition at 1 µM on PI3kα (1 uM) was in the range of 25 to 50%. The molecule also displayed an inhibition at 1 µM against PI3kβ (1 uM) of 50 to 75%. On PI3kγ, the inhibition at 0.1 µM is 25 to 50%. Besides, on PI3kδ, the IC50 is 50 to 100 nM and the inhibition at 0.1 µM lay within 50 to 75%.

As for `CC(c1oc2cccc(F)c2c(=O)c1-c1cccc(F)c1)n1nc(-c2ccc(N3CCOCC3)c(Cl)c2)c2c(N)ncnc21` (single isomer, unassigned) [Example 127], the melting point lay in the range of 260 to 262 °C. The molecule also returned an inhibition at 1 µM on PI3kα (1 uM) of 0 to 25%. The inhibition at 1 µM on PI3kβ (1 uM) lay within 50 to 75%. Further, the inhibition at 0.1 µM against PI3kγ fell in the range of 0 to 25%. Moreover, the inhibition at 0.1 µM at PI3kδ fell in the range of 50 to 75%.

`CC(C)NS(=O)(=O)c1ccc(-c2nn(C(C)c3oc4cccc(F)c4c(=O)c3-c3cccc(F)c3)c3ncnc(N)c23)cc1` (stereo not shown) [Example 56, 4-(4-amino-1-(1-(5-fluoro-3-(3-fluorophenyl)-4-oxo-4H-chromen-2-yl)ethyl)-1H-pyrazolo[3,4-d]pyrimidin-3-yl)-N-isopropylbenzenesulfonamide] gave a melting point of 211 to 214 °C. Besides, the inhibition at 1 µM at PI3kα (1 uM) was in the range of 0 to 25%. At PI3kβ (1 uM), this molecule displayed an inhibition at 1 µM of 50 to 75%. The molecule further had an inhibition at 0.3 µM at PI3kγ of 50 to 75%. For the same molecule, the inhibition at 0.3 µM on PI3kδ lay in the range of 0 to 25%.

Molecule `CC(C)C(=O)Nc1ccc(-c2nn(C(C)c3oc4cccc(F)c4c(=O)c3-c3cccc(F)c3)c3ncnc(N)c23)cc1F` (stereo not shown) [Example 81, N-(4-(4-amino-1-(1-(5-fluoro-3-(3-fluorophenyl)-4-oxo-4H-chromen-2-yl)ethyl)-1H-pyrazolo[3,4-d]pyrimidin-3-yl)-2-fluorophenyl)isobutyramide] displayed a melting point of 249 to 252 °C. In addition, the inhibition at 1 µM on PI3kα (1 uM) was in the range of 25 to 50%. The inhibition at 1 µM against PI3kβ (1 uM) was in the range of 25 to 50%. Moreover, the inhibition at 0.1 µM at PI3kγ was 25 to 50%. Also, at PI3kδ, the inhibition at 0.1 µM was in the range of 50 to 75%.

`CC(Nc1ncnc2[nH]cnc12)c1oc2cccc(F)c2c(=O)c1-c1ccccc1F` (stereo not shown) [Example 131, 2-(1-(9H-purin-6-ylamino)ethyl)-5-fluoro-3-(2-fluorophenyl)-4H-chromen-4-one] came in with a melting point of 203 to 205 °C. On PI3kα (1 uM), this molecule had an inhibition at 1 µM of 25 to 50%. This molecule yielded an inhibition at 1 µM on PI3kβ (1 uM) of 0 to 25%. At PI3kγ, this molecule gave an inhibition at 0.1 µM of 25 to 50%. On PI3kδ, the inhibition at 0.1 µM is 25 to 50%.

On to `CC(c1oc2cccc(F)c2c(=O)c1-c1cccc(F)c1)n1nc(-c2cnc3[nH]ccc3c2)c2c(N)ncnc21` (stereo not shown) [Example 63, 2-(1-(4-amino-3-(1H-pyrrolo[2,3-b]pyridin-5-yl)-1H-pyrazolo[3,4-d]pyrimidin-1-yl)ethyl)-5-fluoro-3-(3-fluorophenyl)-4H-chromen-4-one], for which the melting point was in the range of 303 to 306 °C. On PI3kα (1 uM), the inhibition at 1 µM was in the range of 25 to 50%. Besides, at PI3kβ (1 uM), the inhibition at 1 µM lay within 0 to 25%. The same molecule showed an inhibition at 0.1 µM against PI3kγ of 25 to 50%. This molecule also showed an inhibition at 0.1 µM against PI3kδ of 25 to 50%.

`CC(c1oc2cccc(F)c2c(=O)c1-c1cccc(F)c1)n1nc(-c2ccc(N3CCOCC3)c(F)c2)c2c(N)ncnc21` (single isomer, unassigned) [Example 59] displayed a melting point of 242 to 245 °C. Further, the IC50 against PI3kα (numeric values) was > 10000 nM. Further, the IC50 on PI3kβ is > 500 nM. In addition, the inhibition at 1 µM against PI3kβ (1 uM) lay within 25 to 50%. Also, the IC50 at PI3kγ is ≤ 50 nM. The same molecule returned an IC50 on PI3kδ of 100 to 300 nM.

With `CC(C)C(=O)Nc1ccc(-c2nn(C(C)c3oc4cccc(F)c4c(=O)c3-c3cccc(F)c3)c3ncnc(N4CCOCC4)c23)cc1F` (stereo not shown) [Example 87, N-(2-fluoro-4-(1-(1-(5-fluoro-3-(3-fluorophenyl)-4-oxo-4H-chromen-2-yl)ethyl)-4-morpholino-1H-pyrazolo[3,4-d]pyrimidin-3-yl)phenyl)isobutyramide], the melting point is 168 to 170 °C. On PI3kα (1 uM), this molecule returned an inhibition at 1 µM of 25 to 50%. This molecule also displayed an inhibition at 1 µM at PI3kβ (1 uM) of 50 to 75%. The same molecule yielded an inhibition at 0.1 µM against PI3kγ of 0 to 25%. For the same molecule, on PI3kδ, the IC50 lay within 100 to 300 nM and the inhibition at 0.1 µM fell in the range of 50 to 75%.

In the case of `CC(C)C(=O)Nc1ccc(-c2nn(C(C)c3oc4cccc(F)c4c(=O)c3-c3ccc(F)cc3)c3ncnc(N4CCOCC4)c23)cc1F` (stereo not shown) [Example 86, N-(2-fluoro-4-(1-(1-(5-fluoro-3-(4-fluorophenyl)-4-oxo-4H-chromen-2-yl)ethyl)-4-morpholino-1H-pyrazolo[3,4-d]pyrimidin-3-yl)phenyl)isobutyramide], the melting point is 165 to 167 °C. The molecule further gave an inhibition at 1 µM against PI3kα (1 uM) of 0 to 25%. For the same molecule, at PI3kγ, the IC50 was > 500 nM and the inhibition at 0.1 µM was 25 to 50%. In addition, on PI3kδ, the inhibition at 0.1 µM lay within 50 to 75%.

Regarding `CC(Nc1ncnc2[nH]cnc12)c1oc2cccc(F)c2c(=O)c1-c1cccc(F)c1` (single isomer, unassigned; (-)) [Example 78, (−)-2-(1-(9H-purin-6-ylamino)ethyl)-5-fluoro-3-(3-fluorophenyl)-4H-chromen-4-one], the melting point lay in the range of 205 to 208 °C. On PI3kα (1 uM), this molecule yielded an inhibition at 1 µM of 0 to 25%. Moreover, the inhibition at 1 µM against PI3kβ (1 uM) is 25 to 50%. On PI3kδ, this molecule gave an IC50 of 50 to 100 nM and an inhibition at 0.1 µM of 50 to 75%.
